# Experimental data published in a melting point compilation (Tetko et al.; mined from patent text by program, amines drawn as free bases though some values may be those of a salt).
# Residues, ends and D or L forms follow the SMILES beside them. *: point of attachment. Propionyl = CCC(=O)*; NHPh = c1ccc(N*)cc1
row,Structure (SMILES),melting point [°C]
1,COc1cc(Nc2c(C#N)cnc3cc(/C=C/c4ccncc4)ccc23)c(Cl)cc1Cl,218 to 219
2,O=C(O)CON(Cc1ccc(F)cc1)C(=O)C=C(O)C(=O)O,135 to 138
3,O=C(O)C1CCN(C(=O)OCC2c3ccccc3-c3ccccc32)CC1,187 to 189
4,CN(C)c1ccc(-n2ccn(C3CCc4ccccc4C3)c2=S)nn1 (stereo not drawn),198 to 199
5,CC(C)OC(C)c1cc2c(=O)n(NS(C)(=O)=O)c(=O)[nH]c2cc1C(F)(F)F (stereo not drawn),110 to 115
6,O=Cc1ccc(OC2OC(CO)C(O)C(O)C2O)c2ccccc12 (stereo not drawn),< 255
7,CCCCCCCCC1CC(Cn2cncn2)(c2ccc(OC)cc2)N(C)O1 (stereo not drawn),89 to 91
8,O=C(NO)[C@H](CNCS(=O)(=O)c1ccc(OCc2ccccc2)cc1)N1CCCCC1,102
9,C=C1N(C)C(=O)OC12CCN(C(=O)NCCCC)CC2,129 to 130
10,CCOc1ccc(C(=O)CCC(=O)Nc2cn(Cc3ccccc3)nc2-c2ccccc2)cc1,138 to 141
11,Nc1cnn(CCO)c1N,158 to 160
12,CCc1nc2c(cnn2CC)c(NC2CCOCC2)c1CNC(=O)c1cc(C)cc(C(=O)NCc2ccc(OC)c(-c3cccc(CC4CCN(C)CC4)c3)c2)c1,115 to 117
13,CC(C)(C)OC(=O)NO[C@H]1CC=C[C@H]1NC(=O)OCC(Cl)(Cl)Cl,83 to 84
14,Oc1ccc2cc(-c3cnc(Cc4ccc5ccccc5c4)o3)ccc2c1,188 to 191
15,N=C(Nc1ccc(F)c(NC(=O)/C=C/c2ccccc2Cl)c1)c1ccccc1,189 to 191
16,Cc1c(SCCCSc2ccc3ncc([N+](=O)[O-])n3n2)ccnc1CO,127 to 129
17,Cc1cc(-c2cccc(C(=O)CC(=O)Nc3cc(-c4ccc(F)cc4)ccc3NC(=O)OC(C)(C)C)c2)on1,100 to 101
18,CC(N1CCN(c2ncn(Cc3ccc(C(C)(C)C)cc3)n2)CC1)C(O)(Cn1cncn1)c1ccc(F)cc1F (stereo not drawn),84 to 86
19,CCCCCCCCC(SCCCCCC)C(=O)Nc1c(F)ccc2ncccc12 (stereo not drawn),74 to 75
20,ClCCOc1cccc2[nH]ccc12,60
21,N#Cc1ccc(Nc2nc(Oc3c(F)cccc3F)ccc2[N+](=O)[O-])cc1,234 to 236

row,Structure (SMILES),melting point [°C]
1,Cc1cc(CN(Cc2ccsc2)c2sc(-c3ccc(C(F)(F)F)cc3)nc2C)cc(C)c1OC(C)(C)C(=O)O,90 to 100
2,CCC(=O)N[C@@H](C)C(=O)N[C@@H](C)C(=O)Nc1ccccc1 (Propionyl-Ala-Ala-NHPh),281 to 284
3,O=C(NCCc1ccccn1)c1cnc2cc3c(cc2c1Cl)OCO3,145 to 146
4,COc1cc(-c2c(Cl)c(CCl)nc3sc4c(c23)CCN(Cc2ccccc2)C4)ccc1OC(C)C,173 to 174
5,CCCCCCCCCCOc1cnc(-c2ccc(C#CCCCC(C)O)cc2)nc1 (stereo not drawn),82 to 83
6,CC(C)c1ccccc1NC(=N)Nc1cccc2ccccc12,175 to 177
7,Cc1nn(-c2cccnc2)c(-c2ccccc2)c1CC(=O)O,197 to 199
8,C=CCOCc1c(CN(C)C[C@@H](O)c2ccccn2)sc2c(=O)c(C(=O)NCc3ccc(Cl)cc3)cn(C)c12,125 to 127
9,CCCCCCCCCCCCN(Cc1cccnc1)S(C)(=O)=O,43 to 44
10,O=C(NC(=O)N1CCC(Cc2ccccc2)CC1)c1ccc2[nH]ccc2c1,110 to 112
11,O=[N+]([O-])c1ccc(C#CCCN2CC=C(c3ccccc3)CC2)nc1,133 to 134
12,Cc1nc2c(s1)-c1nc(Nc3ccc(N4CCOCC4)cc3)ncc1CC2,236 to 237
13,COC(=O)[C@@H]1c2ccccc2C[C@@H]1O,72.5 to 73.5
14,COC(=O)c1ccc(OCCNC(=O)C2Cc3ccccc3N2S(=O)(=O)c2ccc(-c3cccc(C(F)(F)F)c3)cc2)c(Cl)c1 (stereo not drawn),84 to 88
15,NC(=S)Nc1ccc2ccccc2n1,179 to 180
16,CCCCOCCOc1ccc(-c2ccc3c(c2)C=C(C(=O)Nc2ccc(S(=O)Cc4ncnn4C)cc2)CCN3CC(C)C)cc1 (stereo not drawn),135 to 138
17,CCC(=O)N1Cc2cn[nH]c2-c2ccccc21,130 to 131
18,c1ccc2c(CCc3ccncc3)c[nH]c2c1,154 to 158
19,COc1cc2c(Nc3cc(OC)c(OC)c(OC)c3)c(C#N)cnc2cc1/C=C/CCO,184 to 185
20,O=C1Nc2cc(F)ccc2N2CCN(CCCCc3ccncc3)CC12 (stereo not drawn),262 to 264
21,OC(CCc1nc(CCl)no1)c1ccc(-c2ccccc2)cc1 (stereo not drawn),48 to 49

row,Structure (SMILES),melting point [°C]
1,CC(=O)C(Cc1cc(C(C)(C)C)c(O)c(C(C)(C)C)c1)(Cc1cc(C(C)(C)C)c(O)c(C(C)(C)C)c1)C(=O)OC1CC(C)(C)NC(C)(C)C1,177 to 178
2,CCOCc1nc2c(N)nc3cccnc3c2n1CCCCCC(N)=O,215 to 217
3,CC(=Nc1ccccc1C(C)C)Nc1ccccc1C(C)C,94 to 96
4,CCN(CC)C(=O)COC(=O)/C=C/C(=O)OC,53 to 56
5,COCCc1nc2c(N)nc3ccc(CCC(=O)N(C)C)cc3c2n1CCCN1CCCC1=O,184 to 186
6,CCn1cc(C(=O)O)c(=O)c2cc(F)c(N3CCN(C(=O)OC(OC(=O)C(C)c4ccc(CC(C)C)cc4)C(=O)OC(C)C)CC3)cc21 (stereo not drawn),88 to 96.5
7,CCCC(O)(CCC)c1ccc(C2=CC=CC(OCc3ccc(CO)c(CO)c3)C2(C)C)cc1 (stereo not drawn),118 to 120
8,O=C(O)c1cc(-c2ccc(OCc3ccccc3)cc2OCc2ccccc2)n[nH]1,218 to 219
9,Cc1nc(C=CNC(=O)c2ccccc2)n[nH]1,140 to 145
10,CCOc1nc(C)nc(N2CCN(c3ccc(F)cc3)CC2)c1[N+](=O)[O-],116 to 119
11,COc1ccc2c3c1OC1C(=O)C(C)(C)C(C)C4C(C2)N(C)CCC314 (stereo not drawn),246 to 248
12,CCc1cc(Nc2ccc(NC(=O)c3ccccc3S(=O)(=O)O)cc2)n2nccc2n1,> 320
13,CC(=O)ON=C(N)c1cccc(C(=O)N2CCN(C(=O)[C@@H]3CCCN3S(=O)(=O)c3ccc(Cl)c(COc4cccc5c(C)cc(C)nc45)c3Cl)CC2)c1,130
14,COc1ccccc1[C@@]1(O)[C@H](O)CC(c2ccccc2)(c2ccccc2)[C@@H]2CN(C(=O)Cc3ccc(N)cc3)C[C@@H]21 (racemic),188
15,CCOC(=O)c1c(C(F)(F)F)nc(C(F)F)c(C(=O)OC)c1CS(C)(=O)=O,110 to 112
16,COC(=O)c1cccc(-c2cnc3c(c2)N(Cc2ccccc2)C(=O)CN3)c1,211
17,CC1CCC(NS(N)(=O)=O)CC1 (stereo not drawn),109 to 110
18,Oc1cc(C(F)(F)F)nn1-c1ccccc1,190 to 192
19,COc1cc2c(cc1OC)CCC=C2,90.5 to 91

# The next lines start with the values.
row,melting point [°C],Structure (SMILES)
1,184 to 187,CC1(C)CCc2c(ccc3c2C(=O)C=C(O)C3=O)O1
2,90.4 to 91.4,COC(=O)c1cc(-c2ccc(SC)cc2)nn(CC(C)C)c1=O
3,130 to 132,Cc1c(C)c2c(c(C)c1N)C(c1ccc(C(C)C)cc1)C(C)(C)O2 (stereo not drawn)
4,208 to 210,COc1ccc(N2CCCn3c2nc2c(Cl)ccc(C(O)(C4CC4)C4CC4)c23)c(C)n1
5,139 to 140,COc1ccc(O)c2c1C1(CCC2)OCCO1
6,215 to 219,COc1cc(C)c(C)[nH]c1=O
7,117 to 119,CCN1CC(NC(=O)c2cc(Cl)c(N)cc2OC)CN1CC
8,174 to 175,COc1ccc(-c2nn(CC3CC3)c(=O)c(C(N)=O)c2-c2ccc(OC)cc2)cc1
9,174 to 176,O=C1CN(Cc2ccccc2)c2cc(Br)ccc2N1
10,237 to 239,COc1cc2c3c(cccc3c1CNC(C)=O)C(=O)N(O)C2=O
11,183 to 187,CC(=O)N(c1cc([N+](=O)[O-])c(F)cc1Cl)S(=O)(=O)CCl
12,146 to 147,CCOC(=O)N/N=C/c1ccc(OC)c(OC2CCCC2)c1
13,247 to 249,CCOC(=O)c1ccc2nc(NC)[nH]c2c1
14,218 to 220,CC(=O)N(C)c1cccc(-c2nc(=O)c3ccccc3s2)n1
15,275 to 280,CN(C)c1cc2nc(C(C)(C)C)sc2cc1NC(N)=S
16,118 to 120,N#Cc1ccc(-c2ccc3oc(CCN)cc3c2)cc1
17,211 to 212,COc1cc2c(cc1Cl)C(O[Si](C)(C)C)(c1ccccc1Cl)C(=O)N2 (stereo not drawn)
18,165 to 167,CNc1cc(C(=O)CS(C)(=O)=O)cc(NC)c1Cl
19,71 to 73,CC1(C)Oc2c(N)ccc(Cl)c2C1=O

row,melting point [°C],Structure (SMILES)
1,83 to 85,CC1(C)C(=O)N(Cc2ccccc2)C(=O)N1CC#CI
2,258 to 260,Cc1c(-c2cc(Br)c(O)c(Br)c2)oc2ccc(OP(=O)(O)O)cc2c1=O
3,146 to 149,CCOC(=O)C(C(=O)Nc1ccc(Br)cc1C)=S(C)C
4,192,Nc1ccc2c(c1)C(c1ccccc1Cl)=CCC(=O)N2
5,185 to 188,CC1=C(C(=O)CS(=O)(=O)NC(C)C)C(c2cccc([N+](=O)[O-])c2)C(C(=O)OCCO)=C(C)N1 (stereo not drawn)
6,148 to 149,Cc1onc(-c2c(F)cccc2Cl)c1-c1csc(N)n1
7,217 to 218,Cc1cc2c(cc1C)C(=O)C(=O)N2
8,77 to 78,CC1C(=O)N(c2ccccc2)c2ccccc21 (stereo not drawn)
9,114 to 116,CC(C)(C)OC(=O)NCCNC(=O)c1nc(Cl)sc1-c1ccccc1
10,95 to 96,COC(=O)N(C)CCc1ccc(N)c(CS(=O)(=O)c2ccccc2)c1
11,189 to 191,Cn1c2c(c(=O)n(-c3ccc(Cl)c(C(=O)OC(C)(C)C)c3)c1=O)CCC2
12,90 to 92,COC(=O)C(C)(C)OCc1cc2cc(Cl)ccc2n1S(=O)(=O)c1ccc2c(c1)OCO2
13,279 to 283,O=C(CNc1c(C(=O)O)[nH]c2cc(Cl)cc(Cl)c12)c1ccc(Cl)cc1
14,124,N#Cc1cccc2c1CC(Br)C2=O (stereo not drawn)
15,172 to 174,Nc1ccc2c(c1)C(=O)NC(C(Cl)(Cl)Cl)O2 (stereo not drawn)
16,185 to 187,Cn1c(C(F)(F)F)cc(=O)n(-c2ccc3snc(C(Br)C#N)c3c2)c1=O (stereo not drawn)
17,236 to 238,Cc1c(C#N)oc2c(-c3ccc(F)cc3)c(-c3ccc(S(C)(=O)=O)cc3)nn12
18,132 to 133,COc1ccc(C(=O)NCCCCCCCNC(=O)c2ccc(OC)c(Cl)c2)cc1Cl
